# The RepoRT retention time repository (doi:10.1016/j.chroma.2022.462867)
# Legend:
# Details in all cases: stereoisomer not certain
# [1] = HILIC, Phenomenex Kinetex HILIC, 150 × 3 mm, 2.6 µm, 40 °C, 0.35 mL/min, estimated dead time 1.9 min; A: water + 0.1% formic acid, pH 3; B: methanol; gradient (min/%B) 0/95 20/0 25/0 30/95
# [2] = RP, Phenomenex Kinetex EVO C18, 150 × 3 mm, 2.6 µm, 40 °C, 0.35 mL/min, estimated dead time 1.9 min; A: water + 0.1% formic acid, pH 3; B: methanol; gradient (min/%B) 0/5 20/100 25/100 30/5
# [3] = RP, Phenomenex Kinetex PS C18, 150 × 3 mm, 2.6 µm, 40 °C, 0.35 mL/min, estimated dead time 1.9 min; A: water + 5 mM ammonium acetate, pH 5; B: methanol; gradient (min/%B) 0/5 20/100 25/100 30/5
# [4] = RP, Phenomenex Kinetex EVO C18, 150 × 3 mm, 2.6 µm, 40 °C, 0.35 mL/min, estimated dead time 1.9 min; A: water + 5 mM ammonium formate, pH 5; B: acetonitrile; gradient (min/%B) 0/5 20/100 25/100 30/5
LC retention time [1] [min],LC retention time [2] [min],LC retention time [3] [min],LC retention time [4] [min],SMILES
3.31,11.5,17.1,13.3,COC(=O)C1C2CC3c4[nH]c5cc(OC)ccc5c4CCN3CC2CC(OC(=O)c2cc(OC)c(OC)c(OC)c2)C1OC (centres undefined) [Reserpine]
3.65,10.4,17.1,12.9,C=CCOC(Cn1ccnc1)c1ccc(Cl)cc1Cl (centres undefined) [Imazalil]
3.41,9.88,13.7,12.3,O=C(CCCN1CCC(O)(c2ccc(Cl)cc2)CC1)c1ccc(F)cc1 [Haloperidol]
4.13,5.49,9.2,6.48,CN(C)CC(c1ccc(O)cc1)C1(O)CCCCC1 (centres undefined) [O-Desmethylvenlafaxine]
3.47,9.18,12.8,11.5,O=C(NCC1CCCCN1)c1cc(OCC(F)(F)F)ccc1OCC(F)(F)F (centres undefined) [Flecainide]
4.05,11.2,17.6,12.2,CC(=O)N1CCN(c2ccc(OCC3COC(Cn4ccnc4)(c4ccc(Cl)cc4Cl)O3)cc2)CC1 (centres undefined) [Ketoconazole]
3.02,–,7.52,3.66,CN1C(=O)CCC1c1cccnc1 (centres undefined) [Cotinine]

# Further lines, the compound ahead of its results:
SMILES,LC retention time [1] [min],LC retention time [2] [min],LC retention time [3] [min],LC retention time [4] [min]
CC(C)(C)C(=O)C(Oc1ccc(Cl)cc1)n1ccnc1 (centres undefined) [Climbazole],2.73,11.5,16.2,–
NCC1(CC(=O)O)CCCCC1 [Gabapentin],3.33,4.04,5.49,2.95
Cc1ccc(S(=O)(=O)N(C)N=O)cc1 [N-Methyl-N-nitrosotoluene-4-sulphonamide],2.38,10.3,13.9,9.88
CCN=C1NC(NC(C)C)=NC(OC)N1 (centres undefined) [Atraton],2.68,8.8,13.7,–
CCN=C1NC(NC(C)C)=NC(SC)N1 (centres undefined) [Ametryn],2.32,–,15.1,11.3
